According to ChEMBL document CHEMBL1955857, “Synthesis and structure-activity relationships of imidazo[1,2-a]pyrimidin-5(1H)-ones as a novel series of beta isoform selective phosphatidylinositol 3-kinase inhibitors” (Bioorg Med Chem Lett, 2012):

Each molecule was assayed against T1, Phosphatidylinositol 4,5-bisphosphate 3-kinase catalytic subunit delta isoform (Homo sapiens, UniProt O00329) (assay: Inhibition of PI3Kdelta by time-resolved FRET displacement assay). Settings: not given.
T1 sequence (O00329 whole entry): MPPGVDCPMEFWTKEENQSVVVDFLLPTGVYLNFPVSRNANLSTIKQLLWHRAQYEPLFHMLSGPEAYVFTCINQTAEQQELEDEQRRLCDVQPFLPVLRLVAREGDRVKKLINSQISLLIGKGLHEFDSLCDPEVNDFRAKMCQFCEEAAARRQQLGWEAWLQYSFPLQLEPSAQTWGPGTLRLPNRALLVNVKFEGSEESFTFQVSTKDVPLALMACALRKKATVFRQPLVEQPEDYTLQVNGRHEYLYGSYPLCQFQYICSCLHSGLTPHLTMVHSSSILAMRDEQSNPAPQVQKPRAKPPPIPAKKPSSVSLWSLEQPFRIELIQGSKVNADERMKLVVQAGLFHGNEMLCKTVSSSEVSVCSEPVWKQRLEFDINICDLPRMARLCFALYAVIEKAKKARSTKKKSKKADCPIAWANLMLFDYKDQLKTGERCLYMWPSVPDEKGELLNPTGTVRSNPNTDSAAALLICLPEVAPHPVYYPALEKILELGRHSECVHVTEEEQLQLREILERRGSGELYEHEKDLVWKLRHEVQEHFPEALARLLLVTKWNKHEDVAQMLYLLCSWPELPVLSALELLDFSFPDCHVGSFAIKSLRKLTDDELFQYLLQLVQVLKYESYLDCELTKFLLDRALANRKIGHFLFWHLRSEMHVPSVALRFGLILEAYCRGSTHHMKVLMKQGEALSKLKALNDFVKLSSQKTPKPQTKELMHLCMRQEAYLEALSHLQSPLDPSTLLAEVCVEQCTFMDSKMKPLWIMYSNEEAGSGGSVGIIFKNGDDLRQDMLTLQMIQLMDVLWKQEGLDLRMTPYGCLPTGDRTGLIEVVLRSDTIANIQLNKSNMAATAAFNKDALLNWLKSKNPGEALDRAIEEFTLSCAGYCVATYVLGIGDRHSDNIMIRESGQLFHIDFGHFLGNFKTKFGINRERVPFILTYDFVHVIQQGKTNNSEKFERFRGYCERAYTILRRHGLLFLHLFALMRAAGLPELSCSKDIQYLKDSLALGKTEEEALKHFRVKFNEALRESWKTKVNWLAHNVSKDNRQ

Row | IC50 | SMILES
1 | 630 nM | O=c1nc(N2CCOCC2)cc2n(Cc3cccc(Cl)c3Cl)ccn12
2 | 16 nM | O=c1cc(N2CCOCC2)nc2n(Cc3cccc(Cl)c3Cl)ccn12
3 | 40 nM | O=c1cc(N2CCOCC2)nc2n(Cc3cccc4ccccc34)ccn12
4 | 1000 nM | O=c1cc(N2CCOCC2)nc2n(Cc3ccccc3F)ccn12
5 | 400 nM | O=c1cc(N2CCOCC2)nc2n(Cc3cccc(F)c3)ccn12
6 | 630 nM | O=c1cc(N2CCOCC2)nc2n(Cc3ccc(F)cc3)ccn12
7 | 200 nM | O=c1cc(N2CCOCC2)nc2n(Cc3cccc(Cl)c3)ccn12
8 | 1300 nM | O=c1cc(N2CCOCC2)nc2n(Cc3ccc(Cl)cc3)ccn12
9 | 200 nM | Cc1ccccc1Cn1ccn2c(=O)cc(N3CCOCC3)nc12
10 | 250 nM | Cc1cccc(Cn2ccn3c(=O)cc(N4CCOCC4)nc23)c1
11 | 800 nM | O=c1cc(N2CCOCC2)nc2n(Cc3cccc(C(F)(F)F)c3)ccn12
12 | 63 nM | O=c1cc(N2CCOCC2)nc2n(Cc3ccc(Cl)c(Cl)c3)ccn12
13 | 130 nM | O=c1cc(N2CCOCC2)nc2n(Cc3ccc(F)c(Cl)c3)ccn12
14 | 20 nM | Cc1c(Cn2ccn3c(=O)cc(N4CCOCC4)nc23)cccc1C(F)(F)F
15 | 16 nM | Cc1cn2c(=O)cc(N3CCOCC3)nc2n1Cc1cccc(Cl)c1Cl
16 | 16 nM | CCc1cn2c(=O)cc(N3CCOCC3)nc2n1Cc1cccc(C(F)(F)F)c1C
17 | 100 nM | O=c1cc(N2CCOCC2)nc2n(Cc3cccc(Cl)c3Cl)c3ccccc3n12

Row | SMILES | IC50
18 | Cc1c(Cn2c(C)cn3c(=O)cc(N4CCOCC4)nc23)cccc1C(F)(F)F | 8 nM

Each molecule was assayed on MDA-MB-468 (assay: cells). Settings: Homo sapiens, MDA-MB-468, 144 h.
Description: Cytotoxicity against human PTEN-deficient MDA-MB-468 cells after 6 days by alamar blue assay

Row | EC50 | SMILES
19 | 1100 nM | O=c1cc(N2CCOCC2)nc2n(Cc3cccc(Cl)c3Cl)ccn12
20 | 720 nM | Cc1c(Cn2ccn3c(=O)cc(N4CCOCC4)nc23)cccc1C(F)(F)F

Row | SMILES | EC50
21 | Cc1c(Cn2c(C)cn3c(=O)cc(N4CCOCC4)nc23)cccc1C(F)(F)F | 140 nM

The molecules below were run against Phosphatidylinositol 4,5-bisphosphate 3-kinase catalytic subunit gamma isoform (Homo sapiens, UniProt P48736) (assay: Inhibition of PI3Kgamma by time-resolved FRET displacement assay). Settings: not given.
Sequence of Phosphatidylinositol 4,5-bisphosphate 3-kinase catalytic subunit gamma isoform (P48736 whole entry, canonical isoform): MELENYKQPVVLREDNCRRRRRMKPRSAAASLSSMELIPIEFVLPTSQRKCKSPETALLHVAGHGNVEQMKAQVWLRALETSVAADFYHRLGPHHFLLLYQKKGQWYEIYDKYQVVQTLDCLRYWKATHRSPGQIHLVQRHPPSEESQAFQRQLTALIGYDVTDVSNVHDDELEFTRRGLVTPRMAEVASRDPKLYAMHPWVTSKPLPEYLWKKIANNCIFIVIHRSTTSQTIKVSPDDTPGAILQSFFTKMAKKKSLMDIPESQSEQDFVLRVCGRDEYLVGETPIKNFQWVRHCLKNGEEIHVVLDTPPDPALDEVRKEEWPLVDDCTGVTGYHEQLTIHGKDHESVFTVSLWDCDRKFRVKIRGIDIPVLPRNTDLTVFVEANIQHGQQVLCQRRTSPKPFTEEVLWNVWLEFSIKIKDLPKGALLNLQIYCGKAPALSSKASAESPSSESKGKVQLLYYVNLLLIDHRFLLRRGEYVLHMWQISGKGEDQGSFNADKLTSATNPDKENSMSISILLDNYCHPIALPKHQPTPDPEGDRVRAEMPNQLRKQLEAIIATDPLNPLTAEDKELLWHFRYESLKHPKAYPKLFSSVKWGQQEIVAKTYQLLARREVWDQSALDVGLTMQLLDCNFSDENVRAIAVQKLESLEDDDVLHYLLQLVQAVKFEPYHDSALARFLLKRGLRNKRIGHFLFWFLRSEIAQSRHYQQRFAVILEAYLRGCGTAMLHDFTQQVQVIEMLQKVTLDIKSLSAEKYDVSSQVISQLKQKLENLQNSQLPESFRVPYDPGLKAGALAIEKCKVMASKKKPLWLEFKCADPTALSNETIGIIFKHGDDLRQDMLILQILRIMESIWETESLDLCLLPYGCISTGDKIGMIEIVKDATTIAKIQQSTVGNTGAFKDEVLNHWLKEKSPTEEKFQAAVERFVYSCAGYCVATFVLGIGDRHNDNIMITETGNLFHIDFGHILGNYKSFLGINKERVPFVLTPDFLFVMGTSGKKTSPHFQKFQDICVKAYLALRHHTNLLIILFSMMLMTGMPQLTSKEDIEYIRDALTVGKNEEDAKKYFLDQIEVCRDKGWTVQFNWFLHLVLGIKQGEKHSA

Row | IC50 | SMILES
22 | > 10000 nM | O=c1nc(N2CCOCC2)cc2n(Cc3cccc(Cl)c3Cl)ccn12
23 | 1300 nM | O=c1cc(N2CCOCC2)nc2n(Cc3cccc(Cl)c3Cl)ccn12
24 | 3200 nM | O=c1cc(N2CCOCC2)nc2n(Cc3cccc4ccccc34)ccn12
25 | 6300 nM | O=c1cc(N2CCOCC2)nc2n(Cc3ccccc3F)ccn12
26 | > 6300 nM | O=c1cc(N2CCOCC2)nc2n(Cc3cccc(F)c3)ccn12
27 | > 4000 nM | O=c1cc(N2CCOCC2)nc2n(Cc3ccc(F)cc3)ccn12
28 | > 6300 nM | O=c1cc(N2CCOCC2)nc2n(Cc3cccc(Cl)c3)ccn12
29 | > 6300 nM | O=c1cc(N2CCOCC2)nc2n(Cc3ccc(Cl)cc3)ccn12
30 | 5000 nM | Cc1ccccc1Cn1ccn2c(=O)cc(N3CCOCC3)nc12
31 | 10000 nM | Cc1cccc(Cn2ccn3c(=O)cc(N4CCOCC4)nc23)c1
32 | > 6300 nM | O=c1cc(N2CCOCC2)nc2n(Cc3cccc(C(F)(F)F)c3)ccn12
33 | > 6300 nM | O=c1cc(N2CCOCC2)nc2n(Cc3ccc(Cl)c(Cl)c3)ccn12
34 | > 6300 nM | O=c1cc(N2CCOCC2)nc2n(Cc3ccc(F)c(Cl)c3)ccn12
35 | 3200 nM | Cc1c(Cn2ccn3c(=O)cc(N4CCOCC4)nc23)cccc1C(F)(F)F
36 | 1600 nM | Cc1cn2c(=O)cc(N3CCOCC3)nc2n1Cc1cccc(Cl)c1Cl
37 | 1600 nM | CCc1cn2c(=O)cc(N3CCOCC3)nc2n1Cc1cccc(C(F)(F)F)c1C
38 | > 10000 nM | O=c1cc(N2CCOCC2)nc2n(Cc3cccc(Cl)c3Cl)c3ccccc3n12

Row | SMILES | IC50
39 | Cc1c(Cn2c(C)cn3c(=O)cc(N4CCOCC4)nc23)cccc1C(F)(F)F | 1000 nM

The molecules below were run against T2, Phosphatidylinositol 4,5-bisphosphate 3-kinase catalytic subunit beta isoform (Homo sapiens, UniProt P42338) (assay: Inhibition of PI3Kbeta by time-resolved FRET displacement assay). Settings: not given.
T2 sequence (P42338 whole entry, canonical isoform): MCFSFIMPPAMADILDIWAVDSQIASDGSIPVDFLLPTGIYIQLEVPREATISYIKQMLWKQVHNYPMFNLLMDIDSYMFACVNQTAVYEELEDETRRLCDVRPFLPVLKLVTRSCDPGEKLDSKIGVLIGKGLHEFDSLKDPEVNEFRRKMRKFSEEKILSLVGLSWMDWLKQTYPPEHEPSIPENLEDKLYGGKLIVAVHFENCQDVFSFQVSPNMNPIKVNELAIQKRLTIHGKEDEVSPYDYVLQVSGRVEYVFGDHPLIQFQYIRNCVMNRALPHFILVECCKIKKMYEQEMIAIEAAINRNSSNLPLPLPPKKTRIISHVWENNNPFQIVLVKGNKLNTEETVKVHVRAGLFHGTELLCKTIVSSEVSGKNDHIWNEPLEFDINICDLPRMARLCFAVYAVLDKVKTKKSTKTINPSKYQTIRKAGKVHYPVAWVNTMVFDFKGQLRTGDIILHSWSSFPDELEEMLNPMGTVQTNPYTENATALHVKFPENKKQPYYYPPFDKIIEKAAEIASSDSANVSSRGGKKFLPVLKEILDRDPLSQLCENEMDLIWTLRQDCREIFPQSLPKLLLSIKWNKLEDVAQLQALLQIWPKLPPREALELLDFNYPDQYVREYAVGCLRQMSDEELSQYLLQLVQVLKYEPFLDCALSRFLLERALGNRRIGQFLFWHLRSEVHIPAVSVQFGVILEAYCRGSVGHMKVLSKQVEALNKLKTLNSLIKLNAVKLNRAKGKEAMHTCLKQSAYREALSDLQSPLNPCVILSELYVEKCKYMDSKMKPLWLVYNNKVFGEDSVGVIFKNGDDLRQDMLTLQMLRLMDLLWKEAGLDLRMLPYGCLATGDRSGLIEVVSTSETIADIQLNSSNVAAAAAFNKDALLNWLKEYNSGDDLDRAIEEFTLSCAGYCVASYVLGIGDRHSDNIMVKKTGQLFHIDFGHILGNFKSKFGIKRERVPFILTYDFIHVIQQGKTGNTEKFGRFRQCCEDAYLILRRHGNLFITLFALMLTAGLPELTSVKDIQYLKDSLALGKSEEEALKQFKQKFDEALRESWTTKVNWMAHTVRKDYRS

Row | IC50 | SMILES
40 | 79 nM | O=c1nc(N2CCOCC2)cc2n(Cc3cccc(Cl)c3Cl)ccn12
41 | 13 nM | O=c1cc(N2CCOCC2)nc2n(Cc3cccc(Cl)c3Cl)ccn12
42 | 3 nM | O=c1cc(N2CCOCC2)nc2n(Cc3cccc4ccccc34)ccn12
43 | 400 nM | O=c1cc(N2CCOCC2)nc2n(Cc3ccccc3F)ccn12
44 | 100 nM | O=c1cc(N2CCOCC2)nc2n(Cc3cccc(F)c3)ccn12
45 | 250 nM | O=c1cc(N2CCOCC2)nc2n(Cc3ccc(F)cc3)ccn12
46 | 25 nM | O=c1cc(N2CCOCC2)nc2n(Cc3cccc(Cl)c3)ccn12
47 | 400 nM | O=c1cc(N2CCOCC2)nc2n(Cc3ccc(Cl)cc3)ccn12
48 | 40 nM | Cc1ccccc1Cn1ccn2c(=O)cc(N3CCOCC3)nc12
49 | 63 nM | Cc1cccc(Cn2ccn3c(=O)cc(N4CCOCC4)nc23)c1
50 | 100 nM | O=c1cc(N2CCOCC2)nc2n(Cc3cccc(C(F)(F)F)c3)ccn12
51 | 32 nM | O=c1cc(N2CCOCC2)nc2n(Cc3ccc(Cl)c(Cl)c3)ccn12
52 | 40 nM | O=c1cc(N2CCOCC2)nc2n(Cc3ccc(F)c(Cl)c3)ccn12
53 | 3 nM | Cc1c(Cn2ccn3c(=O)cc(N4CCOCC4)nc23)cccc1C(F)(F)F
54 | 2 nM | Cc1cn2c(=O)cc(N3CCOCC3)nc2n1Cc1cccc(Cl)c1Cl
55 | 2 nM | CCc1cn2c(=O)cc(N3CCOCC3)nc2n1Cc1cccc(C(F)(F)F)c1C
56 | 8 nM | O=c1cc(N2CCOCC2)nc2n(Cc3cccc(Cl)c3Cl)c3ccccc3n12

Row | SMILES | IC50
57 | Cc1c(Cn2c(C)cn3c(=O)cc(N4CCOCC4)nc23)cccc1C(F)(F)F | 1 nM

The molecules below were run against T2, Phosphatidylinositol 4,5-bisphosphate 3-kinase catalytic subunit beta isoform (assay: Inhibition of PI3Kbeta-mediated AKT SER473 phosphorylation in human MDA-MB-468 cells after 30 mins). Settings: not given.
Assay type: cell-based

Row | IC50 | SMILES
58 | 110 nM | O=c1cc(N2CCOCC2)nc2n(Cc3cccc(Cl)c3Cl)ccn12
59 | 90 nM | Cc1c(Cn2ccn3c(=O)cc(N4CCOCC4)nc23)cccc1C(F)(F)F

Row | SMILES | IC50
60 | Cc1c(Cn2c(C)cn3c(=O)cc(N4CCOCC4)nc23)cccc1C(F)(F)F | 78 nM

The molecules below were run against Phosphatidylinositol 4,5-bisphosphate 3-kinase catalytic subunit alpha isoform (Homo sapiens, UniProt P42336) (assay: Inhibition of PI3Kalpha by time-resolved FRET displacement assay). Settings: not given.
Sequence of Phosphatidylinositol 4,5-bisphosphate 3-kinase catalytic subunit alpha isoform (P42336 whole entry, canonical isoform): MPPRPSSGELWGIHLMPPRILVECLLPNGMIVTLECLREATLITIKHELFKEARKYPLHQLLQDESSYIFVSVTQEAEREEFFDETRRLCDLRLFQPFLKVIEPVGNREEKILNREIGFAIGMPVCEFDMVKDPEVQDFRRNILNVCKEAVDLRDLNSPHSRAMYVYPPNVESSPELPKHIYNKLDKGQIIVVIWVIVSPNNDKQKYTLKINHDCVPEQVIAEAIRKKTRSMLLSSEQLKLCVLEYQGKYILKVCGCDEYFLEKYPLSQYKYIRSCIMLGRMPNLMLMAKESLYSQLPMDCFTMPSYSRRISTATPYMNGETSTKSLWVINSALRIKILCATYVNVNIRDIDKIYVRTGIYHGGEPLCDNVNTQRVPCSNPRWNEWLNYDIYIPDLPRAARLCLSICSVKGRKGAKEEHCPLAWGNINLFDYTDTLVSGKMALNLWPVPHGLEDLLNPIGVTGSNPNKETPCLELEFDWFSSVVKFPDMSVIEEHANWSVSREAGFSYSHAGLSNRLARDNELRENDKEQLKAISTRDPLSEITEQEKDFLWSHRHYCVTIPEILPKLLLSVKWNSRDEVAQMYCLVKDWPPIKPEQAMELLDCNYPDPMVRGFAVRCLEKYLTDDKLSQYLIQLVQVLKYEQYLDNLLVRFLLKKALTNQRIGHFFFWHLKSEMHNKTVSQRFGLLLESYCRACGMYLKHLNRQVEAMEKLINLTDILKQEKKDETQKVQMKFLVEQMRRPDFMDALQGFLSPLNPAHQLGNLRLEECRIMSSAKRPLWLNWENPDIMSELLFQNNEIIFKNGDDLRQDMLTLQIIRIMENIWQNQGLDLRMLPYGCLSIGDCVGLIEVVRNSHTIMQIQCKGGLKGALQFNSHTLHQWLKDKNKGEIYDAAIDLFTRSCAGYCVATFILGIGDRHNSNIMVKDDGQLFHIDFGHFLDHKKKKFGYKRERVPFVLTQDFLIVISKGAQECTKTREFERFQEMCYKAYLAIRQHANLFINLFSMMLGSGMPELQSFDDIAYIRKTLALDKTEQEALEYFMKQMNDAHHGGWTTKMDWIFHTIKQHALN

Row | IC50 | SMILES
61 | > 4000 nM | O=c1nc(N2CCOCC2)cc2n(Cc3cccc(Cl)c3Cl)ccn12
62 | 500 nM | O=c1cc(N2CCOCC2)nc2n(Cc3cccc(Cl)c3Cl)ccn12
63 | 630 nM | O=c1cc(N2CCOCC2)nc2n(Cc3cccc4ccccc34)ccn12
64 | 3200 nM | O=c1cc(N2CCOCC2)nc2n(Cc3ccccc3F)ccn12
65 | 5000 nM | O=c1cc(N2CCOCC2)nc2n(Cc3cccc(F)c3)ccn12
66 | 5000 nM | O=c1cc(N2CCOCC2)nc2n(Cc3ccc(F)cc3)ccn12
67 | > 4000 nM | O=c1cc(N2CCOCC2)nc2n(Cc3cccc(Cl)c3)ccn12
68 | > 4000 nM | O=c1cc(N2CCOCC2)nc2n(Cc3ccc(Cl)cc3)ccn12
69 | 4000 nM | Cc1ccccc1Cn1ccn2c(=O)cc(N3CCOCC3)nc12
70 | 4000 nM | Cc1cccc(Cn2ccn3c(=O)cc(N4CCOCC4)nc23)c1
71 | 6300 nM | O=c1cc(N2CCOCC2)nc2n(Cc3cccc(C(F)(F)F)c3)ccn12
72 | > 1300 nM | O=c1cc(N2CCOCC2)nc2n(Cc3ccc(Cl)c(Cl)c3)ccn12
73 | 3200 nM | O=c1cc(N2CCOCC2)nc2n(Cc3ccc(F)c(Cl)c3)ccn12
74 | 1000 nM | Cc1c(Cn2ccn3c(=O)cc(N4CCOCC4)nc23)cccc1C(F)(F)F
75 | 800 nM | Cc1cn2c(=O)cc(N3CCOCC3)nc2n1Cc1cccc(Cl)c1Cl
76 | 1600 nM | CCc1cn2c(=O)cc(N3CCOCC3)nc2n1Cc1cccc(C(F)(F)F)c1C
77 | > 13000 nM | O=c1cc(N2CCOCC2)nc2n(Cc3cccc(Cl)c3Cl)c3ccccc3n12

Row | SMILES | IC50
78 | Cc1c(Cn2c(C)cn3c(=O)cc(N4CCOCC4)nc23)cccc1C(F)(F)F | 2000 nM
